This is an account of results in patent US8263389B2, “Perifusion device” (Biorep Technologies, Inc., priority 2007, dated 2012).

In experiment [1] the test system is Islet cells. Nature of the experiment: insulin release by perifusion of islet cells after oxygen deprivation, measured by ELISA. Format: cell-based. The settings on record: 11 mM glucose, GLP-1 in addition to 11 mM glucose, KCl. Background: In an ELISA, binding on a coated surface is turned into a signal by an enzyme label.
Protocol: Islet cells were compromised by depriving them from the normal oxygen concentration for 0.5, 2, 6, and 12 hours. After that, these islets were incubated in the perifusion system and exposed to substances that stimulate insulin release such as 11 mM of glucose, GLP-1 in addition to 11 mM of glucose, and potassium chloride (KCl).
Experiment [2] relates to human islets. The experiment in a line: glucagon-insulin release from in vitro perifused human islets. Format: cell-based. The note with it: alpha cells of perifused human islets. How it is done:
FIG. 22 illustrates glucagon-insulin release from in vitro perifused human islets. This experiment was conducted to show the usefulness of the perifusion system in drug screening. Insulin and glucagon are hormones secreted from the beta and alpha cells of the islets of Langerhans. […] In the same way, any other compound's ability to influence the health or alter the behavior of the pancreatic islets can be assayed using the perifusion system of the invention.

Where [3] appears, read: control batch, normal culture conditions without oxygen deprivation.
The mark [4] stands for this setting: islets after twelve hours of incubation with low oxygen.

Where no end group is shown, it is not given here.

As to `[Cl-].[K+]` [KCl, potassium chloride], the “insulin release response to stimulus” value was “prominent response” in experiment [1] (setting [3]) and “very small” in experiment [1] (setting [4]).
As to “GLP-1 (HAEGTFTSDVSSYLEGQAAKEFIAWLVKGR; ends and bridges not checked; UniProt P01275 98-127, looked up)”, the “insulin release response to stimulus” value is reported as “prominent response” in experiment [1] (setting [3]) and “little or no response” in experiment [1] (setting [4]).
kainates: the glucagon release profile result in experiment [2] is “stimulated the alpha cells to produce glucagon”.
